Data as given in patent publication US20260242373A1, “NBD1 MODULATORS AND METHODS OF USING THE SAME” (Sionna Therapeutics Inc., priority 2023, published 2026).

Tests used:
NBD1 = assay: Aggregation analysis of NBD1 thermal stability by differential static light scattering (DSLS); format: binding, Human; conditions: 100 μM compound; ΔTagg versus DMSO control
Procedure: Purified recombinant NBD1 was produced using previously described methods (A. Schmidt, J. L. Mendoza, P. J. Thomas (2011) Biochemical and Biophysical Approaches to Probe CFTR Structure (365-376) M. D. Amaral, K. Kunzelmann (eds.), Cystic Fibrosis, Methods in Molecular Biology 741, Springer Science+Business Media). The effect of test compounds on thermal stability of NBD1 was evaluated by differential static light scattering (DSLS) using the Harbinger Stargazer-384 instrument (Epiphyte Three, Toronto, Canada). Test compounds were dissolved and diluted to desired concentrations in 100% DMSO. The compounds or DMSO controls (100 nL) were stamped into wells of a […] low volume optical plate (Corning Inc., Corning, NY) using the Echo 555 acoustic liquid handler (Labcyte Inc., San Jose, CA).
NBD1 protein was diluted to 0.2 mg/ml in S200 buffer (50 mM Tris-HCl, 150 mM NaCl, 5 mM MgCl2, 2 mM ATP, 2 mM DTT, pH7.6) containing 1% glycerol. 10 uL of protein solution was aliquoted into the 384-well plate harboring the test compounds and 10 uL mineral oil was overlayed onto the protein solution, using the epMotion robotic liquid handler (Eppendorf North America, Hauppauge, NY). After placing into the Stargazer instrument, the plate was heated at 1° C. per minute to 70° C. Images were captured from 25° C. to 70° C. every 0.5° C. At the end of the experiment run, instrument software integrated image files and analyzed data automatically. A […] regression curve was generated for each well, representing the increase in light scattering over time. A temperature of aggregation (Tagg) was calculated based on the inflection point of the curve. To better compare data across experiments the average Tagg for DMSO control wells was calculated and subtracted from values for wells containing compounds to obtain a “ΔTagg” value. These ΔTagg values reflect stabilizing efficacy of the compounds.

[1] = test system: Primary human bronchial epithelial cells from a ΔF508 homozygous CF donor (CF-HBE cells); assay: TECC24 recording of CFTR-mediated transepithelial chloride transport, AUC fold over DMSO; format: cell-based; conditions: 48 hours incubation, ratio of test agent AUC to vehicle AUC of forskolin-stimulated IEQ
Procedure: The effects of a test agent on CFTR-mediated transepithelial chloride transport was measured using TECC24 recording analysis. Test agents were solubilized in DMSO. Solubilized test agents were mixed with incubation medium containing DMEM/F12, Ultroser G (2%; Crescent Chemical, catalog #67042), Hyclone Fetal Clone 11 (2%; GE Healthcare, catalog #SH30066.02), bovine brain extract (0.25%; Lonza, catalog #CC-4098), insulin (2.5 μg/mL), IL-13 (10 ng/mL), hydrocortisone (20 nM), transferrin ([…]), triiodothyronine (500 nM), ethanolamine (250 nM), epinephrine (1.5 μM), phosphoethanolamine (250 nM), and retinoic acid (10 nM). Primary human bronchial epithelial cells from a ΔF508 homozygous CF donor (CF-HBE cells; from University of North Carolina Cystic Fibrosis Tissue Procurement Center), grown on Transwell HTS 24-well cell culture inserts (Costar, catalog #3378), were exposed to test agents or controls dissolved in incubation medium. The CF-HBE cells were cultured at 36.5° C. for 48 hours before TECC24 recordings were performed in the presence or absence of test agent, a positive control or vehicle (DMSO).
Following incubation, the transwell cell culture inserts containing the test agent or control-treated CF-HBE cells were loaded onto a TECC24 apparatus (TECC v7 or MTECC v2; EP Design) to record the transepithelial voltage (VT) and resistance (TEER) using 4 AgCl electrodes per well configured in current-clamp mode. The apical and basolateral bath solutions both contained (in mM) 140 NaCl, 5 KCl, 2 CaCl2), 1 MgCl2, 10 Hepes, and 10 glucose (adjusted to pH 7.4 with NaOH). To inhibit basal Na+ absorption, the ENaC inhibitor benzamil (10 μM) was added to the bath. Then, the adenylate cyclase activator, forskolin ([…]), was added to the bath to activate CFTR. The forskolin-stimulated Cl— transport was halted by addition of CFTR inhibitor-172 ([…]) to the bath at the end of the experiment to confirm specificity. […] Efficacy is expressed as the ratio of the test agent AUC divided by vehicle AUC. […]

SMILES: C[C@@H](c1nc(-c2cc(Oc3c(F)cc4[nH]ccc4c3F)ccc2F)n(C)n1)c1ccc(CCC(=O)O)s1 (single isomer, unassigned) [Compound 44]
- DSLS NBD1/3D Human Stability delta-T (° C.) @ 100 (μM) (NBD1): B (B: 4-8° C.)
- TECC24 @ 10 uM over DMSO [1]: C (“C” refers to AUC @ 10 uM <=4)

SMILES: Cc1c(Oc2ccc(F)c(-c3nc(Cc4csc(CCC(=O)O)c4)c[nH]3)c2)c(F)cc2[nH]ccc12 [Compound 4, 3-(4-((2-(2-fluoro-5-((6-fluoro-4-methyl-1H-indol-5-yl)oxy)phenyl)-1H-imidazol-4-yl)methyl)thiophen-2-yl)propanoic acid]
- DSLS NBD1/3D Human Stability delta-T (° C.) @ 100 (μM) (NBD1): B (B: 4-8° C.)
- TECC24 @ 10 uM over DMSO [1]: C (“C” refers to AUC @ 10 uM <=4)

SMILES: c1cc(Oc2ccc3[nH]ccc3c2)cc(-c2nnc(Cc3cccs3)[nH]2)c1 [Compound 10, 5-(3-(5-(thiophen-2-ylmethyl)-4H-1,2,4-triazol-3-yl)phenoxy)-1H-indole]
- DSLS NBD1/3D Human Stability delta-T (° C.) @ 100 (μM) (NBD1): C (C: ≤4° C.)
- TECC24 @ 10 uM over DMSO [1]: C (“C” refers to AUC @ 10 uM <=4)
